Experimental data taken from ChEMBL document CHEMBL1134625 (J Med Chem, 2001).

Legend:
[1] = target: Melatonin receptor type 1A (Homo sapiens, UniProt P48039)
D(1A) dopamine receptor = D(1A) dopamine receptor (Homo sapiens, UniProt P21728)
[2] = target: 5-hydroxytryptamine receptor 1B (Homo sapiens, UniProt P28222)
[3] = target: T1, Adrenergic receptor alpha-1 (Homo sapiens, UniProt P35348+P25100+P35368); format: protein assay
T1 sequence (P35348 whole entry): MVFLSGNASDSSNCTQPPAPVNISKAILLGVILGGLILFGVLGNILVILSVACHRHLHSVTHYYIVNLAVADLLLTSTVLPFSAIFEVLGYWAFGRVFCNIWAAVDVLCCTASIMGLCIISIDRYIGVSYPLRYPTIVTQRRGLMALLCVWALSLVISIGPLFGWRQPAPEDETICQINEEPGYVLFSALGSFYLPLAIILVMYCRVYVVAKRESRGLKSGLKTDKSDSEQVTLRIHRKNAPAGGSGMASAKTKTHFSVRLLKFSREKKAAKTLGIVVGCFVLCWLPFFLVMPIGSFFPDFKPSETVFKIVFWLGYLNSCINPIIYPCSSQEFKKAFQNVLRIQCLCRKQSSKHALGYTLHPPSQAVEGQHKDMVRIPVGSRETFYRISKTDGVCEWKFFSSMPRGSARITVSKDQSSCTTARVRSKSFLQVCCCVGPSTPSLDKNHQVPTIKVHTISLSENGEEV
T1 sequence (P25100 whole entry): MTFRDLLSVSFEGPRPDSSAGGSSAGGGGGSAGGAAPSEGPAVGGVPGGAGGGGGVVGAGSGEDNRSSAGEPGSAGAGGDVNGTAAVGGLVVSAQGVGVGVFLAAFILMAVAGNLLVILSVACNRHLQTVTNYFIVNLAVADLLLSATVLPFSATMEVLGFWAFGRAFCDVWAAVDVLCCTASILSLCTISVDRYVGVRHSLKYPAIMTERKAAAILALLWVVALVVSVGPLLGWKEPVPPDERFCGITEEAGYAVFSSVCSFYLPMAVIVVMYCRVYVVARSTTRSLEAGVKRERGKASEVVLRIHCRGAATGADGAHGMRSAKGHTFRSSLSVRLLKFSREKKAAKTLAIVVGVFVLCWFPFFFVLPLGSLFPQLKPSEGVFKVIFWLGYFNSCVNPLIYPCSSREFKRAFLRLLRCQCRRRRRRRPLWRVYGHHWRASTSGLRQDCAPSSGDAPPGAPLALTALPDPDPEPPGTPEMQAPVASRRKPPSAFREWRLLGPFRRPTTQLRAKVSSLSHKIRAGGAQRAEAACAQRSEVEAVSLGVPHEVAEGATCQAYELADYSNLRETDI
T1 sequence (P35368 whole entry): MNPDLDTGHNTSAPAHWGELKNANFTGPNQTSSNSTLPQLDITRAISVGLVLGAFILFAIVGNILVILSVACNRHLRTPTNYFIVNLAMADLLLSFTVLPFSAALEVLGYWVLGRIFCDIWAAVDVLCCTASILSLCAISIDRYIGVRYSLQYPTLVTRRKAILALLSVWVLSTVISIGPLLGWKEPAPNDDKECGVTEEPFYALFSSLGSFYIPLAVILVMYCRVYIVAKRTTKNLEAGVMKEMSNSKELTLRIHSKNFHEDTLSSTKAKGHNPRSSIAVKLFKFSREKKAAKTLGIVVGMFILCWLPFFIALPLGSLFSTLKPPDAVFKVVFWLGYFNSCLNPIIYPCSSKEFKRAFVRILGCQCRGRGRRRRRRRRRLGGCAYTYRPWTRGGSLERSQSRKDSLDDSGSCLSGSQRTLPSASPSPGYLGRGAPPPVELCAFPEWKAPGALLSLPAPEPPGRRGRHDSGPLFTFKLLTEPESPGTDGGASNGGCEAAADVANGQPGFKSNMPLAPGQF

[4] = target: Sodium-dependent noradrenaline transporter (Homo sapiens, UniProt P23975)
Chain of Sodium-dependent noradrenaline transporter (P23975 whole entry): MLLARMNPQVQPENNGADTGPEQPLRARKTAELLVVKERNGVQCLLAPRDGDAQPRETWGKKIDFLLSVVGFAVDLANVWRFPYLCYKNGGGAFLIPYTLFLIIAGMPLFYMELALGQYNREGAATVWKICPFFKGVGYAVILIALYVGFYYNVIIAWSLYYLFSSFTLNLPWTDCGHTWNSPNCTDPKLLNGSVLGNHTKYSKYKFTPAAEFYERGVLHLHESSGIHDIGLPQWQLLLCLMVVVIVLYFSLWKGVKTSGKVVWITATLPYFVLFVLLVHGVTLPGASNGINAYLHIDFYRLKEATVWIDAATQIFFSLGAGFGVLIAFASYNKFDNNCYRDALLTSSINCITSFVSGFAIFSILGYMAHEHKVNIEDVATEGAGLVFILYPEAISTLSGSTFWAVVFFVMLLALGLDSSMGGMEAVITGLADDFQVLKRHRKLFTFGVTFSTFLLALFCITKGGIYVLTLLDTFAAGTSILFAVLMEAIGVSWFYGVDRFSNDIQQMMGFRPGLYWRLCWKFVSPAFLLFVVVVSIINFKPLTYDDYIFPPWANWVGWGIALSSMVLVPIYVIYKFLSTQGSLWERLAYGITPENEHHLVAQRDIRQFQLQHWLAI

Vasopressin V1a receptor = Vasopressin V1a receptor (Homo sapiens, UniProt P37288)
Chain of Vasopressin V1a receptor (P37288 whole entry): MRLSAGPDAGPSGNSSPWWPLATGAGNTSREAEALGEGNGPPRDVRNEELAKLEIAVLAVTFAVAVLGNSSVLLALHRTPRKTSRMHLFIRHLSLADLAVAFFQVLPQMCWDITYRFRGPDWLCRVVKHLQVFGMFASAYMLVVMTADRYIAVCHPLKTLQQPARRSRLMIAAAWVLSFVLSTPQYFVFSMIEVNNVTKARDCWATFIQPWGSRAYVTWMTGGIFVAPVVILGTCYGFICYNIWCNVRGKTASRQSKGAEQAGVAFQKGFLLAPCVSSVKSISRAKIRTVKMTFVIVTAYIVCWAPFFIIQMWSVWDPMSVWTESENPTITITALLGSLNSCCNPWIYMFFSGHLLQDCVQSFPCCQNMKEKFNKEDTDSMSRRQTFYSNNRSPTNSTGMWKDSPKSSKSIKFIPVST

Substance-K receptor = Substance-K receptor (Homo sapiens, UniProt P21452)
Chain of Substance-K receptor (P21452 whole entry): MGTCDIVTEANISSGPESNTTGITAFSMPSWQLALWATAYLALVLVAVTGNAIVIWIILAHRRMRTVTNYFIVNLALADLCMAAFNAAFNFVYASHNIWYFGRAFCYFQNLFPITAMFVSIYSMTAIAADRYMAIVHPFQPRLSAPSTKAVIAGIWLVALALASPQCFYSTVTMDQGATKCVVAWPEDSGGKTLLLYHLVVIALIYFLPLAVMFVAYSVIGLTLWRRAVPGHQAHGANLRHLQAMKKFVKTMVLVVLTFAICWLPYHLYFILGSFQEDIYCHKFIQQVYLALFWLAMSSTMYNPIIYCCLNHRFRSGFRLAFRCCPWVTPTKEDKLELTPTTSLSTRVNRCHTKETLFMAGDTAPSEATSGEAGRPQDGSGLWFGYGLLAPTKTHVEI

Translocator protein = Translocator protein (Homo sapiens, UniProt P30536)
Chain of Translocator protein (P30536 whole entry): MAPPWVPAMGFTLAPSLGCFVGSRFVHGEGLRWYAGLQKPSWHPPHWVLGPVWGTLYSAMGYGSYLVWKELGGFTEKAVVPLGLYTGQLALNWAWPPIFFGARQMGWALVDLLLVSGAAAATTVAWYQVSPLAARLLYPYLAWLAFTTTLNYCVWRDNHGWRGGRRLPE

Adenosine receptor A1 = Adenosine receptor A1 (Homo sapiens, UniProt P30542)
Chain of Adenosine receptor A1 (P30542 whole entry): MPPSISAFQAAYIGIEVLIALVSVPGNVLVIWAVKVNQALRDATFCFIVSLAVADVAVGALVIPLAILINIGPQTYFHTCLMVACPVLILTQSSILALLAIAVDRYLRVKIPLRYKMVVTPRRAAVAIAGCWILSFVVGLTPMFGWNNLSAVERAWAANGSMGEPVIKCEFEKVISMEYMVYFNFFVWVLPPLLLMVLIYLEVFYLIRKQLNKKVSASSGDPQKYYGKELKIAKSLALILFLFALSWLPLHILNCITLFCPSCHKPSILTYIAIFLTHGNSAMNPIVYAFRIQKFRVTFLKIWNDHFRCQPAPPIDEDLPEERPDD

Adenosine receptor A3 = target: T2, Adenosine receptor A3 (Homo sapiens, UniProt P0DMS8)
T2 sequence (P0DMS8 whole entry): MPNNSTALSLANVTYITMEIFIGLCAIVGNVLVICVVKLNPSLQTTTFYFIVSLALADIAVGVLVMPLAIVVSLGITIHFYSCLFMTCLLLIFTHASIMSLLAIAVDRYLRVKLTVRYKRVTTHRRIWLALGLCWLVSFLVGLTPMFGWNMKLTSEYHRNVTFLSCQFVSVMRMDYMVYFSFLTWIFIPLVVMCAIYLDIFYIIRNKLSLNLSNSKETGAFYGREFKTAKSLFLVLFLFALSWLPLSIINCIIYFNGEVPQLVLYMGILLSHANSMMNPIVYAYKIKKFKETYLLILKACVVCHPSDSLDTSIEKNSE

[5] = target: T3, 5-hydroxytryptamine receptor 1A (Homo sapiens, UniProt P08908)
T3 sequence (P08908 whole entry): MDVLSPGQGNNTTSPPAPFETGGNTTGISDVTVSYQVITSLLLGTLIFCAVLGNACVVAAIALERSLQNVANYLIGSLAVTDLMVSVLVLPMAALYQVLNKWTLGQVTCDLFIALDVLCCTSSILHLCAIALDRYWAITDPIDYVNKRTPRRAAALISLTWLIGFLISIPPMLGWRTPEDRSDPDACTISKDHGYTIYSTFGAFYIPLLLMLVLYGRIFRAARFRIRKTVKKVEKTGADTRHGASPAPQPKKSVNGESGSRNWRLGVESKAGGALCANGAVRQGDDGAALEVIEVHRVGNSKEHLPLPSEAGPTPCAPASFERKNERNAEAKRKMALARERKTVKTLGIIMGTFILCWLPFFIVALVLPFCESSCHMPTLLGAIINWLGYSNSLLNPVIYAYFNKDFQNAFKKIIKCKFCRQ

D(1B) dopamine receptor = D(1B) dopamine receptor (Homo sapiens, UniProt P21918)
Chain of D(1B) dopamine receptor (P21918 whole entry): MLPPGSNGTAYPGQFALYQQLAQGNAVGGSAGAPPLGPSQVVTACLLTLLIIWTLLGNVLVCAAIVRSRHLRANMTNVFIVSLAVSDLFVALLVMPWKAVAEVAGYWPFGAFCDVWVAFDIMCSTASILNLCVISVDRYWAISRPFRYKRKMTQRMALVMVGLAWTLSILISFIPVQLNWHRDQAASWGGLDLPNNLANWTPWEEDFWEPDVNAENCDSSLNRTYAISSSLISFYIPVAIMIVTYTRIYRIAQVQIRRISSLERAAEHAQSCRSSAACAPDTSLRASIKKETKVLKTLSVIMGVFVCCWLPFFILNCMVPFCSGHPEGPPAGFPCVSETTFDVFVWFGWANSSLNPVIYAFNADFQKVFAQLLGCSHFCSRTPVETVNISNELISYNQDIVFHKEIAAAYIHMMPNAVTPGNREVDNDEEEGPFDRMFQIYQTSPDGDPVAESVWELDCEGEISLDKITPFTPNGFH

Chain of Melatonin receptor type 1A (P48039 whole entry): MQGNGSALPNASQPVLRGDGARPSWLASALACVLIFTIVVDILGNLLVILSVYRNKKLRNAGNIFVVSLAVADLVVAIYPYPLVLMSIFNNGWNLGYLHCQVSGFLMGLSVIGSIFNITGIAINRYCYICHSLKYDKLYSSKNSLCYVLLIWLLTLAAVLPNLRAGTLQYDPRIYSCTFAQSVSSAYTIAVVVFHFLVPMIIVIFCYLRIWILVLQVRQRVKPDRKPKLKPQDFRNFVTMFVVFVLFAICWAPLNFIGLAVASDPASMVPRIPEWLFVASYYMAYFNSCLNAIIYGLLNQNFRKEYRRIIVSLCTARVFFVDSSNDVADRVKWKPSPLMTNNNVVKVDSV
Chain of 5-hydroxytryptamine receptor 1B (P28222 whole entry): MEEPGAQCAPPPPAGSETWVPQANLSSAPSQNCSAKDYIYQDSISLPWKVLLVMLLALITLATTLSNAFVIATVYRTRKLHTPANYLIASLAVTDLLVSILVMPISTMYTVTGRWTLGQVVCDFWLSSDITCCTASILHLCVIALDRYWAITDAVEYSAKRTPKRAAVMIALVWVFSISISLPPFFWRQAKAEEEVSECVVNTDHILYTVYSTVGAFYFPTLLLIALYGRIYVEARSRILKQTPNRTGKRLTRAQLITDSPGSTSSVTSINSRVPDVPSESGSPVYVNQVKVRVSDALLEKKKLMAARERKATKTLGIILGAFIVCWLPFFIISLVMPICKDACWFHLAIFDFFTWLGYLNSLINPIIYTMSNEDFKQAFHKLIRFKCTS
Chain of D(1A) dopamine receptor (P21728 whole entry): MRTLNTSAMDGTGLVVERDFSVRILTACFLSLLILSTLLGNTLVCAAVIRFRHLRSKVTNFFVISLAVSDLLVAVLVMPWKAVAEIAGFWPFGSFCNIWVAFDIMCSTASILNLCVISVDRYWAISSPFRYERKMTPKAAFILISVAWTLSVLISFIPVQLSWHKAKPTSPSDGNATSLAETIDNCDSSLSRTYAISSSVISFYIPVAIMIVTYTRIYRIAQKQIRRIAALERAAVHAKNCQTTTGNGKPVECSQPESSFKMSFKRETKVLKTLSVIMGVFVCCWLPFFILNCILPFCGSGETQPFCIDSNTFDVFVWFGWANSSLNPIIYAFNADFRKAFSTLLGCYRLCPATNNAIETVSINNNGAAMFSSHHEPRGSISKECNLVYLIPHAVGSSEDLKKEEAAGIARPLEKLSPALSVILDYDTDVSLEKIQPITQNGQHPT

Q: Which IC50 [1] does the source give for `O=C(OCc1cc2c(cc1Cl)OCO2)N1CCC(n2c(O)nc3ccccc32)CC1` here?
A: 1740 nM

Q: What about the IC50 (D(1A) dopamine receptor) of the same molecule?
A: 7580 nM

Q: What about the IC50 [2] of the same molecule?
A: 708 nM

Q: What about the IC50 [3] of the same molecule?
A: 1340 nM

Q: And the IC50 [4]?
A: 3020 nM

Q: What about the IC50 (Vasopressin V1a receptor) of the same molecule?
A: 2220 nM

Q: And the IC50 (Substance-K receptor)?
A: 4420 nM

Q: What about the IC50 (Translocator protein) of the same molecule?
A: 1040 nM

Q: What about the IC50 (Adenosine receptor A1) of the same molecule?
A: 2640 nM

Q: What about the IC50 (Adenosine receptor A3) of the same molecule?
A: 1780 nM

Q: What about the IC50 [5] of the same molecule?
A: 4650 nM

Q: What about the IC50 (D(1B) dopamine receptor) of the same molecule?
A: 4890 nM
